Read-outs that look alike come from different tables or passages of the source.
Key:
[1] = in vitro; conditions: human
[2] = test system: human embryonic lung (HEL) fibroblast cells; conditions: mock-infected HEL cells; microscopically visible alterations in cell morphology
[3] = test system: HCoV-229E; experiment: Cytopathic effect (CPE) reduction assay with HCoV-229E in HEL cells; type: cell-based, human coronavirus 229E; conditions: for EC50: Human coronavirus 229E, 120 h, HCoV-229E-infected HEL cells, five days at 35 °C; for Selectivity Index MTS: ratio of CC50 to EC50-MTS; for Selectivity Index MTS / Selectivity Index Microscopy: only values of 10 or higher shown; for Selectivity Index Microscopy: ratio of MCC to EC50-microscopy
[4] = protection against virus-induced CPE by MTS cell viability assay, read-out: Antiviral EC50 MTS
[5] = protection against virus-induced CPE by microscopic scoring, read-out: Antiviral EC50 Microscopy

| Compound | CC50 [1] | Cytotoxicity MCC (minimal cytotoxic concentration) [2] | EC50 [3, 4] | EC50 [3, 5] | Selectivity Index MTS [3] | Selectivity Index Microscopy [3] |
| --- | --- | --- | --- | --- | --- | --- |
| COC(=O)C[C@H](NC(=O)OC(C)(C)C)C(=O)N(Cc1ccc(F)cc1)C1(C(=O)NCc2ccccc2)CCN(Cc2ccccc2)CC1 [Compound 2] | 44 ± 8 µM | 100 µM | 7.4 ± 2.5 µM | 7.8 ± 2.7 µM | 6 | 13 |
| COC(=O)C[C@H](NC(=O)OC(C)(C)C)C(=O)N(Cc1ccc(F)cc1)C(C)(C)C(=O)NCc1ccccc1 [Compound 3] | > 100 µM | >100 µM | > 100 µM | > 100 µM |  |  |
| COC(=O)C[C@H](NC(=O)OC(C)(C)C)C(=O)N(Cc1ccc(F)cc1)C1(C(=O)NCc2ccccc2)CCNCC1 [Compound 4] | 66 ± 7 µM | 100 µM | 78 ± 14 µM | 50 ± 18 µM |  |  |
| COC(=O)C[C@H](NC(=O)OC(C)(C)C)C(=O)N(Cc1ccc(F)cc1)C1(C(=O)NCc2ccccc2)CCN(C)CC1 [Compound 5] | 92 ± 4 µM | >100 µM | 22 ± 7 µM | 22 ± 9 µM |  |  |
| COC(=O)C[C@H](NC(=O)OC(C)(C)C)C(=O)N(Cc1ccc(F)cc1)C1(C(=O)NCc2ccccc2)CCN(C2CCCCC2)CC1 [Compound 6] | 85 ± 9 µM | 100 µM | 14 ± 1 µM | 22 ± 9 µM |  |  |
| COC(=O)C[C@H](NC(=O)OC(C)(C)C)C(=O)N(Cc1ccc(F)cc1)C1(C(=O)NCc2ccccc2)CCN(c2ccccc2)CC1 [Compound 7] | > 100 µM | >100 µM | > 100 µM | 43 ± 3 µM |  |  |
| COC(=O)C[C@H](NC(=O)OC(C)(C)C)C(=O)N(Cc1ccc(F)cc1)C1(C(=O)NCc2ccccc2)CC[N+](C)(Cc2ccccc2)CC1 (stereo partly shown) [Compound 8] | > 100 µM | >100 µM | > 100 µM | > 100 µM |  |  |
| COC(=O)C[C@H](NC(=O)OC(C)(C)C)C(=O)N(Cc1ccc(F)cc1)C1(C(=O)NCc2ccccc2)CCN(Cc2cccc(F)c2)CC1 [Compound 9] | > 100 µM | >100 µM | > 100 µM | > 100 µM |  |  |
| COC(=O)C[C@H](NC(=O)OC(C)(C)C)C(=O)N(Cc1ccc(F)cc1)C1(C(=O)NCc2ccccc2)CCN(Cc2cc(F)cc(F)c2)CC1 [Compound 10] | 10 ± 2 µM | 70 µM | > 100 µM | 15 ± 1 µM |  |  |
| COC(=O)C[C@H](NC(=O)OC(C)(C)C)C(=O)N(Cc1ccc(F)cc1)C1(C(=O)NCc2ccccc2)CCN(CCc2ccccc2)CC1 [Compound 11] | 38 ± 2 µM | 100 µM | 4.4 ± 0.8 µM | 3.2 ± 0.1 µM |  | 31 |
| COC(=O)C[C@H](NC(=O)OC(C)(C)C)C(=O)N(Cc1ccc(F)cc1)C1(C(=O)NC(C)(C)C)CCN(Cc2ccccc2)CC1 [Compound 12] | 77 µM | ≥100 µM | 11 µM | 11 µM |  |  |
| COC(=O)C[C@H](NC(=O)OC(C)(C)C)C(=O)N(Cc1ccc(F)cc1)C1(C(=O)NC2CCCCC2)CCN(Cc2ccccc2)CC1 [Compound 13] | > 100 µM | >100 µM | > 100 µM | > 100 µM |  |  |
| COC(=O)C[C@H](NC(=O)OC(C)(C)C)C(=O)N(Cc1ccc(F)cc1)C1(C(=O)NCS(=O)(=O)c2ccc(C)cc2)CCN(Cc2ccccc2)CC1 [Compound 14] | 78 ± 11 µM | 100 µM | 30 ± 6 µM | 57 ± 18 µM |  |  |
| COC(=O)C[C@H](NC(=O)OC(C)(C)C)C(=O)N(Cc1ccccc1)C1(C(=O)NC(C)(C)C)CCN(Cc2ccccc2)CC1 [Compound 15, Methyl(S)-4-(benzyl(1-benzyl-4-tert-butylcarbamoylpiperidin-4-yl)amino)-3-tert-butoxycarbonylamino-4-oxobutanoate] | 78 ± 7 µM | >100 µM | 25 µM | 25 µM |  |  |
| COC(=O)C[C@H](NC(=O)OC(C)(C)C)C(=O)N(Cc1ccccc1)C1(C(=O)NC2CCCCC2)CCN(Cc2ccccc2)CC1 [Compound 16, Methyl(S)-4-(benzyl(1-benzyl-4-cyclohexylcarbamoylpiperidin-4-yl)amino)-3-tert-butoxycarbonylamino-4-oxobutanoate] | 42 ± 4 µM | ≥40 µM | 10 µM | 16 ± 3 µM |  |  |
| COC(=O)CNC(=O)C1(N(Cc2ccccc2)C(=O)[C@H](CC(=O)OC)NC(=O)OC(C)(C)C)CCN(Cc2ccccc2)CC1 [Compound 17] | > 100 µM | >100 µM | 75 ± 8 µM | 68 ± 3 µM |  |  |
| COC(=O)C[C@H](NC(=O)OC(C)(C)C)C(=O)NC1(C(=O)NCc2ccccc2)CCN(Cc2ccccc2)CC1 [Compound 18] | 48 ± 8 µM | ≥100 µM | > 100 µM | 55 ± 16 µM |  |  |
| COC(=O)C[C@H](NC(=O)OC(C)(C)C)C(=O)N(C)C1(C(=O)NCc2ccccc2)CCN(Cc2ccccc2)CC1 [Compound 19] | 18 ± 2 µM | 100 µM | > 100 µM | 14 ± 1 µM |  |  |
| CCC(C)N(C(=O)[C@H](CC(=O)OC)NC(=O)OC(C)(C)C)C1(C(=O)NCc2ccccc2)CCN(Cc2ccccc2)CC1 (stereo partly shown) [Compound 20] | 31 ± 3 µM | 100 µM | 13 ± 1 µM | 14 ± 1 µM |  |  |
| COC(=O)C[C@H](NC(=O)OC(C)(C)C)C(=O)N(C1CC1)C1(C(=O)NCc2ccccc2)CCN(Cc2ccccc2)CC1 [Compound 21] | 14 ± 3 µM | 50 µM | > 100 µM | 12 ± 0.4 µM |  |  |
| COC(=O)C[C@H](NC(=O)OC(C)(C)C)C(=O)N(Cc1ccc(C)cc1)C1(C(=O)NCc2ccccc2)CCN(Cc2ccccc2)CC1 [Compound 22] | 31 ± 10 µM | 75 µM | 4.3 ± 0.6 µM | 3.1 µM |  | 24 |
| COC(=O)C[C@H](NC(=O)OC(C)(C)C)C(=O)N(Cc1ccc([N+](=O)[O-])cc1)C1(C(=O)NCc2ccccc2)CCN(Cc2ccccc2)CC1 [Compound 23] | 49 ± 6 µM | 75 µM | 4 ± 0.6 µM | 3.1 µM | 12 | 24 |
| COC(=O)C[C@H](NC(=O)OC(C)(C)C)C(=O)N(Cc1ccc(C(F)(F)F)cc1)C1(C(=O)NCc2ccccc2)CCN(Cc2ccccc2)CC1 [Compound 24] | 11 ± 1 µM | 25 µM | 4.2 ± 1 µM | 3.1 µM |  |  |
| COC(=O)C[C@H](NC(=O)OC(C)(C)C)C(=O)N(Cc1ccc(Cl)cc1)C1(C(=O)NCc2ccccc2)CCN(Cc2ccccc2)CC1 [Compound 25] | 12 µM | 50 µM | 3.2 ± 0.2 µM | 3.1 µM |  |  |
| COC(=O)C[C@H](NC(=O)OC(C)(C)C)C(=O)N(Cc1ccccc1F)C1(C(=O)NCc2ccccc2)CCN(Cc2ccccc2)CC1 [Compound 26] | 44 ± 1 µM | 100 µM | 15 ± 2 µM | 12 ± 1 µM |  |  |

From paper PMC9416004, “A Versatile Class of 1,4,4-Trisubstituted Piperidines Block Coronavirus Replication In Vitro” (Pharmaceuticals, 2022)
